Structures are written as SMILES. Structures can show the parent of a compound that is named as a salt. Bounds are passed on as bounds.

The source of these data is EP3502109A1, “TRIAZOLE-PHENYL-THIAZOLE HETEROCYCLES AS INNOVATIVE INHIBITORS OF TRYPANOTHIONE REDUCTASE AND THEIR USE AS LEISHMANICIDES” (Consejo Superior De Investigaciones Científicas, priority 2017, dated 2019).

For one assay, the target named is recombinant Li-TryR (Leishmania infantum, UniProt A4HSF7). Put plainly: Li-TryR oxidoreductase activity assay. The assay is classed as biochemical. Conditions: read-out: IC50 act. As for the experimental part: Oxidoreductase activity was determined according to the method described by Hamilton et al. (Biochem. J., 2003, 369, 529-537). Briefly, reactions were carried out at 26 °C (250 µL) of HEPES pH 8.0 (40 mM) buffer containing EDTA (1 mM), NADPH (150 µM), NADP+ (30 µM), DTNB (25 µM), T[S]2 (1 µM), glicerol (0.02%), DMSO (1.5%) and recombinant Li-TryR (7 nM). […] Enzyme activity was monitored by the increase in absorbance at 412 nm for 1 h at 26 °C in a VERSAmax microplate reader (Molecular Devices, California, USA). All the assays were conducted in triplicate in at least three independent experiments. Data were analyzed using a non-linear regression model with the Grafit6 software (Erithacus, Horley, Surrey, UK).
Chain of recombinant Li-TryR (A4HSF7 entry or part of it): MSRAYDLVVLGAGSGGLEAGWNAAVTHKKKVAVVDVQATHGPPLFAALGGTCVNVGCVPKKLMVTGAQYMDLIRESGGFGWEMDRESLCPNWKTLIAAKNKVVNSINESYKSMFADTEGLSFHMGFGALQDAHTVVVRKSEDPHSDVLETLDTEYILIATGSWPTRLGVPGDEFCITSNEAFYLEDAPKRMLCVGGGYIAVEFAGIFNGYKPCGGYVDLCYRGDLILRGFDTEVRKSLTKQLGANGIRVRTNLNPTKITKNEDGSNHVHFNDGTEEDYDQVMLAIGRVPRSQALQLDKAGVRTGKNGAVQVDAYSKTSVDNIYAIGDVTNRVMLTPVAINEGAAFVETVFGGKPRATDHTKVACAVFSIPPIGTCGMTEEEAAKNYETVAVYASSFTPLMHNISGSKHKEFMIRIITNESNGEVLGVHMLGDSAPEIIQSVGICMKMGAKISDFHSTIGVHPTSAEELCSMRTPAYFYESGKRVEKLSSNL

The target in another assay is Li-TryR dimeric form (Leishmania infantum, UniProt A4HSF7). The experiment in a line: Dimer quantitation assay (ELISA), Li-TryR monomer displacement. The assay is classed as binding. Conditions: read-out: IC50 dim. The procedure: The stability of the Li-TryR dimeric form in the presence of the compounds was evaluated using an Enzyme-Linked ImmunoSorbent Assay (ELISA). Briefly a dual (HIS/FLAG) tagged Li-TryR (400 nM) was incubated in a dimerization buffer (200 µL 300 mM NaCl, 50 mM Tris pH 8.0) for 16 h at 37 °C with agitation and in a humid atmosphere in the presence of different peptide concentration (10 to 90 µM) in 1.5ml tubes. Next, the tubes were centrifuged at 30000 rcf and supernatants were disposed in anti-flag coated 96 well plates and incubated 30 min, at 37°C with gentle shaking. Then the plates were washed ten times with TTBS (Tween 0.1%, 2 mM Tris, 138 mM NaCl 138 pH 7.6) and incubated with diluted monoclonal α-HIS HRP conjugated antibody (200 µL, Abcam, Cambridge, UK) in BSA (5%) in TTBS for 1 h at room temperature. The plates were washed once again as previously described and 1,2-phenylenediamine dihydrochloride (OPD) substrate (100 µL, Dako, Glostrup, Denmark) prepared according to manufacturer's instructions was added. The enzymatic reaction was stopped after 10 min with H2SO4 (100 µL, 0.5 M) and the absorbances were measured at 490 nm in a VERSAmax microplate reader (Molecular Devices, California, USA). All the assays were conducted in triplicate in at least three independent experiments. Data were analyzed using a non-linear regression model with the Grafit6 software (Erithacus, Horley, Surrey, UK). Table 1. IC50 ± SEM values for target compounds of formula I-A and I-B in the oxidoreductase activity assays and in the Li-TryR monomer displacement
Chain of Li-TryR dimeric form (A4HSF7 entry or part of it): as above

As to `NCCCCc1cn(-c2ccc(-c3nc(-c4ccccc4)c(-c4ccccc4)s3)c(OCCN3CCNC3=O)c2)nn1` [Compound 8p, 1-(2-(5-(4-(4-Aminobutyl)-1H-1,2,3-triazol-1-yl)-2-(4,5-diphenylthiazol-2-yl)phenoxy)ethyl)imidazolidin-2-one 2,2,2 trifluoroacetate], the values for the half-inhibitory concentration (IC50) on recombinant Li-TryR and at Li-TryR dimeric form were 6.07 ± 1.01 µM and 4.15 ± 1.92 µM, respectively.

For `NCCCCc1cn(-c2ccc(-c3nc(-c4ccccc4)cs3)c(OCCN3CCNC3=O)c2)nn1` [Compound 8c, 1-(2-(5-(4-(4-aminobutyl)-1H-1,2,3-triazol-1-yl)-2-(4-phenylthiazol-2-yl)phenoxy)ethyl)imidazolidin-2-one 2,2,2 trifluoroacetate], the IC50 turned out to be 24 ± 1.69 µM on recombinant Li-TryR and 29 ± 1.51 µM on Li-TryR dimeric form.

With `C[n+]1nn(-c2ccc(-c3nc(CCc4ccc(-c5ccccc5)cc4)cs3)c(OCCN3CCNC3=O)c2)cc1CCCN` [Compound 10j, 1-(4-(4-(2-([1,1'-Biphenyl]-4-yl)ethyl)thiazol-2-yl)-3-(2-(2-oxoimidazolidin-1-yl)ethoxy)phenyl)-4-(3-ammoniopropyl)-3-methyl-1H-1,2,3-triazol-3-ium 2,2,2-trifluoroacetate trifluoromethanesulfonate], the IC50 amounted to 6.99 ± 0.59 µM on recombinant Li-TryR and 30.2 ± 3.47 µM at Li-TryR dimeric form.

Turning to `C[n+]1nn(-c2ccc(-c3nc(CCc4ccccc4)cs3)c(OCCN3CCNC3=O)c2)cc1CCCN` [Compound 10i, 4-(3-Ammoniopropyl)-3-methyl-1-(3-(2-(2-oxoimidazolidin-1-yl)ethoxy)-4-(4-phenethylthiazol-2-yl)phenyl)-1H-1,2,3-triazol-3-ium 2,2,2-trifluoroacetate trifluoromethanesulfonate], the IC50 was 21.5 ± 2.87 µM at recombinant Li-TryR and more than 75 µM on Li-TryR dimeric form.

On to `C[n+]1nn(-c2ccc(-c3nc(CCc4ccccc4)cs3)c(OCCN3CCNC3=O)c2)cc1CCCCN` [Compound 10b, 4-(4-Ammoniobutyl)-3-methyl-1-(3-(2-(2-oxoimidazolidin-1-yl)ethoxy)-4-(4-phenethylthiazol-2-yl)phenyl)-1H-1,2,3-triazol-3-ium 2,2,2-trifluoroacetate trifluoromethanesulfonate], for which the IC50 on recombinant Li-TryR was 12.9 ± 0.98 µM; at Li-TryR dimeric form, more than 75 µM.

Take `NCCCc1cn(-c2ccc(-c3nc(CCc4ccc(-c5ccccc5)cc4)cs3)c(OCCN3CCNC3=O)c2)nn1` [Compound 8o, 1-(2-(2-(4-(2-([1,1'-Biphenyl]-4-yl)ethyl)thiazol-2-yl)-5-(4-(3-aminopropyl)-1H-1,2,3-triazol-1-yl)phenoxy)ethyl)imidazolidin-2-one 2,2,2 trifluoroacetate]: the IC50 on recombinant Li-TryR turned out to be 21.8 ± 5.49 µM; on Li-TryR dimeric form, 11.1 ± 0.44 µM.

Take `NCCCCc1cn(-c2ccc(-c3nc(CCc4ccccc4)cs3)c(OCCC3CCNCC3)c2)nn1` [Compound 8l, 4-(1-(4-(4-phenethylthiazol-2-yl)-3-(2-(piperidin-4-yl)ethoxy)phenyl)-1H-1,2,3-triazol-4-yl)butan-1-amine 2,2,2 trifluoroacetate]: the IC50 at recombinant Li-TryR was 5.78 ± 0.89 µM; on Li-TryR dimeric form, more than 75 µM.

In the case of `C[n+]1nn(-c2ccc(-c3nc(CCc4ccccc4)cs3)c(OCCC3CCNCC3)c2)cc1CCCCN` [Compound 10k, Mono (4-(2-(5-(4-(4-ammoniobutyl)-3-methyl-1H-1,2,3-triazol-3-ium-1-yl)-2-(4-phenethylthiazol-2-yl)phenoxy)ethyl)piperidin-1-ium) mono(2,2,2-trifluoroacetate) mono(trifluoromethanesulfonate)], the half-maximal inhibitory concentration (IC50) at recombinant Li-TryR was 3.35 ± 0.3 µM; at Li-TryR dimeric form, more than 75 µM.

For the molecule `C[n+]1nn(-c2ccc(-c3nc(-c4ccccc4)cs3)c(OCCN3CCNC3=O)c2)cc1CCCCN` [Compound 10a, 4-(4-Ammoniobutyl)-3-methyl-1-(3-(2-(2-oxoimidazolidin-1-yl)ethoxy)-4-(4-phenylthiazol-2-yl)phenyl)-1H-1,2,3-triazol-3-ium 2,2,2-trifluoroacetate trifluoromethanesulfonate], the values for the IC50 at recombinant Li-TryR and on Li-TryR dimeric form were 22.8 ± 0.98 µM and more than 75 µM, respectively.
